{
  "source": "ChEMBL document CHEMBL5465560",
  "about": "“Selectivity Literature for EUbOPEN Chemogenomic Library” (2024)",
  "key": {"[1]": {"target": "Serine/threonine-protein kinase 33 (Homo sapiens) (UniProt Q9BYT3)", "sequence (Q9BYT3 whole entry, looked up)": "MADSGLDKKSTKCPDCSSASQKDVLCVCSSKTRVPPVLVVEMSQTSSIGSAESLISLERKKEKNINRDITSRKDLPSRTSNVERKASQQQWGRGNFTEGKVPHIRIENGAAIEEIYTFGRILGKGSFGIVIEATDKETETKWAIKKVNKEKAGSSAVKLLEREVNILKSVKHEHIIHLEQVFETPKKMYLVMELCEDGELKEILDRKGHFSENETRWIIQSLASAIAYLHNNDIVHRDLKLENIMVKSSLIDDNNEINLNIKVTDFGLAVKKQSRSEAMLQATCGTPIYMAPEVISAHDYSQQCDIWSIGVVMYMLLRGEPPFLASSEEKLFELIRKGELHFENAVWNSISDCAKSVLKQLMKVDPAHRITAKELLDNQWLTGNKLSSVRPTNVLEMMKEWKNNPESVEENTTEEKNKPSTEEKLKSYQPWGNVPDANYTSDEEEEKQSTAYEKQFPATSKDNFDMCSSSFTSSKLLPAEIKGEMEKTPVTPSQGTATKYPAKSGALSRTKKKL", "details": "at 10 µM"}, "[2]": {"target": "Cyclin-dependent kinase 8 (Homo sapiens, UniProt P49336)", "sequence (P49336 whole entry)": "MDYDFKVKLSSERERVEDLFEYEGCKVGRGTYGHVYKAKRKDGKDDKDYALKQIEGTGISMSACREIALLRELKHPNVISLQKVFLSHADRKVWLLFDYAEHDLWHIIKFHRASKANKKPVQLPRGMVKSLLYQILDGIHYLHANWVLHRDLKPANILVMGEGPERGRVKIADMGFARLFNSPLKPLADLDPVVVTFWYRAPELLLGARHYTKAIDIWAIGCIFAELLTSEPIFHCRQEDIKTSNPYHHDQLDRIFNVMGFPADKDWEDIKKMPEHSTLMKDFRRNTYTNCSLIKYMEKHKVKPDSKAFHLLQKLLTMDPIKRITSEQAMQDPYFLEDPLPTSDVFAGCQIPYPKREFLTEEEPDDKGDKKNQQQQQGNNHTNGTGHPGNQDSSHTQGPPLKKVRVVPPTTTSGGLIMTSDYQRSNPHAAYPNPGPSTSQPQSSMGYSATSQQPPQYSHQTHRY", "experiment": "Selectivity interaction (KinomeScan (DiscoverX)) EUB0000655a CDK8", "details": "at 10 µM"}, "[3]": {"target": "T1, Ephrin type-B receptor 2 (Homo sapiens) (UniProt P29323)", "T1 sequence (whole entry)": "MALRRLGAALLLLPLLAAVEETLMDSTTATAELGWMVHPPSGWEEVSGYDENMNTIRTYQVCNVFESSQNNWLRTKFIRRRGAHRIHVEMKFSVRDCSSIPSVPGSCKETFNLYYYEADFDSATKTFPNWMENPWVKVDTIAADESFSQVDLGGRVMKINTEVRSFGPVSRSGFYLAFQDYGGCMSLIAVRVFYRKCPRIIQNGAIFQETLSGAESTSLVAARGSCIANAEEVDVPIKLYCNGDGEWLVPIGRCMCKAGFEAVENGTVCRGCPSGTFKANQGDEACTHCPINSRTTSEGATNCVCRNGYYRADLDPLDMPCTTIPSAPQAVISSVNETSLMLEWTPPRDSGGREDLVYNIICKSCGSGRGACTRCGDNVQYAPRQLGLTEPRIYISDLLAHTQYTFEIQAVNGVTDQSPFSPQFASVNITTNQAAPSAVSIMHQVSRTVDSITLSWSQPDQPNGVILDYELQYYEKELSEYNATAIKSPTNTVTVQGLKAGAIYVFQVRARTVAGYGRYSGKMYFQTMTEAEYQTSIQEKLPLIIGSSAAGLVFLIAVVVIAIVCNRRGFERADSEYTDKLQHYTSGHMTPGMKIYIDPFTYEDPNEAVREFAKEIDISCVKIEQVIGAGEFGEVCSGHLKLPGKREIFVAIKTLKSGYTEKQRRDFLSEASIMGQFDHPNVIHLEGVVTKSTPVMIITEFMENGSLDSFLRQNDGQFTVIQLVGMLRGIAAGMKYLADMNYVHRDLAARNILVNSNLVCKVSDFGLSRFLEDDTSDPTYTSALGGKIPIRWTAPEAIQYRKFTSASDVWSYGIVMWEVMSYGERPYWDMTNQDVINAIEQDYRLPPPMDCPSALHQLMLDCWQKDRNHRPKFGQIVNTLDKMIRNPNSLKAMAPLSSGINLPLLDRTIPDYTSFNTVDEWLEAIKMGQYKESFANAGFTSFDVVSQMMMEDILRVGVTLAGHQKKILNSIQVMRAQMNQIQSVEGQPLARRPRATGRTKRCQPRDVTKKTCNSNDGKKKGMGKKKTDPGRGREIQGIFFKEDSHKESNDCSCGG", "experiment": "Selectivity interaction (KinomeScan (DiscoverX)) EUB0001079a EPHB2", "details": "at 1 µM"}, "[4]": {"target": "Casein kinase I isoform gamma-3 (Homo sapiens) (UniProt Q9Y6M4)", "sequence (Q9Y6M4 whole entry, looked up, canonical isoform)": "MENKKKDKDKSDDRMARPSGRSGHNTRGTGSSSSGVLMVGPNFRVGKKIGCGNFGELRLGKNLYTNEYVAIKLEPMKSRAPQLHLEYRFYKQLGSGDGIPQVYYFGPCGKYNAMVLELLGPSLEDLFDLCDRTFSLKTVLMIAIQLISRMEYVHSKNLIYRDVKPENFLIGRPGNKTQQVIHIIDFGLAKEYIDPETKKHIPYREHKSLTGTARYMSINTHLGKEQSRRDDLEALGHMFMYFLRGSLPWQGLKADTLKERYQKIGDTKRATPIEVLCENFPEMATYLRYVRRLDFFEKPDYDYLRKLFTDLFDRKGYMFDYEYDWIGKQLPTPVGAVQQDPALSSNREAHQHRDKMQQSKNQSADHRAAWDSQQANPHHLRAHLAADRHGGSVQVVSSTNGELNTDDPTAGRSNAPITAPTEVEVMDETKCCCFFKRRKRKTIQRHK", "experiment": "Selectivity interaction (KinomeScan (DiscoverX)) EUB0001619a CSNK1G3", "details": "at 1 µM"}, "[5]": {"target": "Ribosomal protein S6 kinase alpha-1 (Homo sapiens, UniProt Q15418)", "sequence (Q15418 whole entry)": "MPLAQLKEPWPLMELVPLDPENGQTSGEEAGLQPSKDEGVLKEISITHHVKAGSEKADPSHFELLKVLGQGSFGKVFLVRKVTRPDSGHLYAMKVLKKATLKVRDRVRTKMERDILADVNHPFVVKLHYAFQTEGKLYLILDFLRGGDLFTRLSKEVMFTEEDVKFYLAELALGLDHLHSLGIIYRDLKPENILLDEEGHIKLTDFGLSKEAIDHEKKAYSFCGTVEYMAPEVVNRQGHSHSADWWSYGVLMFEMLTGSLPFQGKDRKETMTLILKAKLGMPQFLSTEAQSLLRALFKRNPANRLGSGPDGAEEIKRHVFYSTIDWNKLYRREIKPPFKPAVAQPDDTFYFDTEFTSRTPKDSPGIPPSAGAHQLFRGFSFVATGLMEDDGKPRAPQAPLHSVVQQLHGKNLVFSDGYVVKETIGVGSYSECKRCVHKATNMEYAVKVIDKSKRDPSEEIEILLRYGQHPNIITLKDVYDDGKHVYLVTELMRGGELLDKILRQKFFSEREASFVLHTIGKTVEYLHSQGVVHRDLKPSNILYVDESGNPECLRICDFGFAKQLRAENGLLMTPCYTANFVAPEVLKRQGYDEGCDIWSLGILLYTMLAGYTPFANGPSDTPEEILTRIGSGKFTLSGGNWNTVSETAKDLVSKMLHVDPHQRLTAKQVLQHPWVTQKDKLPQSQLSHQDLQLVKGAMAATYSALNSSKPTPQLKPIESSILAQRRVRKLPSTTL", "experiment": "Selectivity interaction (Kinase panel (DSF assay)) EUB0001558a RPS6KA1"}, "[6]": {"target": "Leukocyte tyrosine kinase receptor (Homo sapiens, UniProt P29376)", "experiment": "Selectivity interaction (KinomeScan (DiscoverX)) EUB0000595a LTK", "details": "at 10 µM"}, "[7]": {"test_system": "Mast/stem cell growth factor receptor Kit (Homo sapiens), P10721 [V559D,V654A]", "sequence (P10721 whole entry V559D/V654A)": "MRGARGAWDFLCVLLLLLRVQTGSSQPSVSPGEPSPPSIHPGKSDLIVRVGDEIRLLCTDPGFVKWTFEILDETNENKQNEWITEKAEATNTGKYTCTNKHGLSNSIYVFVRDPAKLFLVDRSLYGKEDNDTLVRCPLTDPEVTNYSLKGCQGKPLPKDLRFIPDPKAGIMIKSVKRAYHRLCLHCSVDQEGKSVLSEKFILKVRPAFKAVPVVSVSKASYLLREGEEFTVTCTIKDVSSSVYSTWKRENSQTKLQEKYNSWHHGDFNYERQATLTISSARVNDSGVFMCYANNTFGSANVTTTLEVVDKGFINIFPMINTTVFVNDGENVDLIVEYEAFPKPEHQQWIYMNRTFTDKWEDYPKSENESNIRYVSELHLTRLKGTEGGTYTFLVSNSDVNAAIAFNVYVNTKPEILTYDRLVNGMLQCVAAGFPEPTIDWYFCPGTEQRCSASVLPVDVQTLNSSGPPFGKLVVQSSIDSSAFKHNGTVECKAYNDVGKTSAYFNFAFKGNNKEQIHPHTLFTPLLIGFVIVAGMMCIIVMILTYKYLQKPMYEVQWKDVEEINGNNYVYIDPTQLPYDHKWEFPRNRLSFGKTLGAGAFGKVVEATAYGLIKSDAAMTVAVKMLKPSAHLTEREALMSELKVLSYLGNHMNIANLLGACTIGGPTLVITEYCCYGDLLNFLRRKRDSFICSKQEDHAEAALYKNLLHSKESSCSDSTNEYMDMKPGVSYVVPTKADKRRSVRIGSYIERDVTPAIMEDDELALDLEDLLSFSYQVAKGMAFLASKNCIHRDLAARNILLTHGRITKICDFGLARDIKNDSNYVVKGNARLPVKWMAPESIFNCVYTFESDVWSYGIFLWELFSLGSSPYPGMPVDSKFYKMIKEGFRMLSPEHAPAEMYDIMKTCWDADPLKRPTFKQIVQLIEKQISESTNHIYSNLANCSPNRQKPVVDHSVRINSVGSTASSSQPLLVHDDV", "details": "at 10 µM"}, "[8]": {"target": "Cyclin-dependent kinase 5/CDK5 activator 1 (Homo sapiens) (UniProt Q00535+Q15078)", "experiment": "Selectivity interaction (Kinase panel (Invitrogen)) EUB0000639a CDK5", "format": "protein-complex assay", "details": "at 200 nM"}, "[9]": {"target": "Interferon-induced, double-stranded RNA-activated protein kinase (Homo sapiens) (UniProt P19525)", "sequence (P19525 whole entry)": "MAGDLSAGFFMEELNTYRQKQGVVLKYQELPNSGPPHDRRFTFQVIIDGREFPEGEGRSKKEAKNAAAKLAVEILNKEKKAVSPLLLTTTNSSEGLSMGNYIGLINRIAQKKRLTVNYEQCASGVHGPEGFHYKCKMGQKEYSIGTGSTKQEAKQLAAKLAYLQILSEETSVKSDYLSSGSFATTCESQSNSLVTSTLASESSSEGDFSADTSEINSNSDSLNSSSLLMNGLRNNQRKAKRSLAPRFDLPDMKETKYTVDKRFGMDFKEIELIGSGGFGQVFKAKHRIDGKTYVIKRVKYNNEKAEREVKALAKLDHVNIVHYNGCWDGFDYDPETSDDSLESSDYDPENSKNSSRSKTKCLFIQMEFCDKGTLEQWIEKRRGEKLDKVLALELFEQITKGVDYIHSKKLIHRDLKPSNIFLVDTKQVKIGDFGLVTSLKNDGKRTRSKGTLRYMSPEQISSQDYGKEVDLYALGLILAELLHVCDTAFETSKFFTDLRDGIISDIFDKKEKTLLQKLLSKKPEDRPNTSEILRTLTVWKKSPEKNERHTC", "experiment": "Selectivity interaction (KinomeScan (DiscoverX)) EUB0000229b EIF2AK2", "details": "at 10 µM"}, "[10]": {"target": "Phosphatidylinositol 4,5-bisphosphate 3-kinase catalytic subunit beta isoform (Homo sapiens) (UniProt P42338)", "experiment": "Selectivity interaction (KinomeScan (DiscoverX)) EUB0000229b PIK3CB", "details": "at 10 µM"}, "[11]": {"target": "Aurora kinase B (Homo sapiens, UniProt Q96GD4)", "sequence (Q96GD4 whole entry)": "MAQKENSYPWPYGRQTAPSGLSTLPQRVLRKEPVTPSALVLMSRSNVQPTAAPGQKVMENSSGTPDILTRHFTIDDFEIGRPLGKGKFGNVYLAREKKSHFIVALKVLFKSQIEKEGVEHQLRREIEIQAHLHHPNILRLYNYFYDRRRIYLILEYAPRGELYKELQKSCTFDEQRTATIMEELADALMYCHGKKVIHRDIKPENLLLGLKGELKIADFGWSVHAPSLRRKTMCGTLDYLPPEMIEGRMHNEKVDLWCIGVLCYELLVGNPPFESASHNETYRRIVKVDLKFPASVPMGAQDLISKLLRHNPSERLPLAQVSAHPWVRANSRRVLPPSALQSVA", "experiment": "Selectivity interaction (KinomeScan (DiscoverX)) EUB0000666a AURKB", "details": "at 10 µM"}, "[12]": {"target": "Serine/threonine-protein kinase pim-2 (Homo sapiens, UniProt Q9P1W9)", "sequence (Q9P1W9 whole entry, looked up)": "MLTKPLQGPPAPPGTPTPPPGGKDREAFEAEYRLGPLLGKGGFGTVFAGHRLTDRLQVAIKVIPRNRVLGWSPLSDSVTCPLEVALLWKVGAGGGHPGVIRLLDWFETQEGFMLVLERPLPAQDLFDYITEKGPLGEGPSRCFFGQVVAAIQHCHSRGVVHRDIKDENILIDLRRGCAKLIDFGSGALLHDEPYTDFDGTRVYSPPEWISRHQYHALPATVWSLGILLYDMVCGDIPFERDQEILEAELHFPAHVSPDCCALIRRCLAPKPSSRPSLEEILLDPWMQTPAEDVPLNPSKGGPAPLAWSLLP", "experiment": "Selectivity interaction (KinomeScan (DiscoverX)) EUB0000666a PIM2", "details": "at 10 µM"}, "[13]": {"target": "T2, Protein kinase C iota type (Homo sapiens) (UniProt P41743)", "T2 sequence (whole entry)": "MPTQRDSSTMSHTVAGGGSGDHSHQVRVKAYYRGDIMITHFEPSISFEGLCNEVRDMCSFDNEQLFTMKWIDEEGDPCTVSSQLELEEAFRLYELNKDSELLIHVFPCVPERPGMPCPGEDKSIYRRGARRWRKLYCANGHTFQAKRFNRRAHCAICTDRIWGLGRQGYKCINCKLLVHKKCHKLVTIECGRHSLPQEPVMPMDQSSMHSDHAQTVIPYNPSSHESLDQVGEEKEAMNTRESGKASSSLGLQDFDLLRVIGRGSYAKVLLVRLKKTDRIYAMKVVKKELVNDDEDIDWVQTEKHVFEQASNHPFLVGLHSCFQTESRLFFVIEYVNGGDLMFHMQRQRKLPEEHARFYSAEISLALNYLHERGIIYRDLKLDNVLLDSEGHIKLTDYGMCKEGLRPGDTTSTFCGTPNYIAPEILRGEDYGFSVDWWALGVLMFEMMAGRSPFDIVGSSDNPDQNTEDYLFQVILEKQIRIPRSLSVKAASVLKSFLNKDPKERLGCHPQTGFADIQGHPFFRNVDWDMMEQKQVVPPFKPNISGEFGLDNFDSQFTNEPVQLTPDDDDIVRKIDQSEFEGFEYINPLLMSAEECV", "experiment": "Selectivity interaction (KinomeScan (DiscoverX)) EUB0000092b PRKCI", "details": "at 10 µM"}, "[14]": {"target": "Proto-oncogene tyrosine-protein kinase Src (Homo sapiens, UniProt P12931)", "sequence (P12931 2-536 limits assumed)": "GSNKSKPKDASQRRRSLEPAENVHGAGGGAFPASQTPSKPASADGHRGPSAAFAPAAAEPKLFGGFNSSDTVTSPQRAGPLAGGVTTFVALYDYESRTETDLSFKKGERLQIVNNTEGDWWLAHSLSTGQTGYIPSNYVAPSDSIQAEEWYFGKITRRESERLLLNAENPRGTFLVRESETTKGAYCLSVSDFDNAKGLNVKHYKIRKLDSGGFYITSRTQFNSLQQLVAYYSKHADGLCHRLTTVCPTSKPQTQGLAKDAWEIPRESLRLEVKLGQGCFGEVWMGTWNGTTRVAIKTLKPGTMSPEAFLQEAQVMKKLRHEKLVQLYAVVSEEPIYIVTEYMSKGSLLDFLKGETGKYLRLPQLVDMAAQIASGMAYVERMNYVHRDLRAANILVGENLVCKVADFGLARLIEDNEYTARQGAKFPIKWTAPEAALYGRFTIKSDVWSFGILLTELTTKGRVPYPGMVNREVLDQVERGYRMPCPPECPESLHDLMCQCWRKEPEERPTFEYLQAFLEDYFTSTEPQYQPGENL", "experiment": "Selectivity interaction (KinomeScan (DiscoverX)) EUB0000695a SRC", "details": "at 100 nM"}},
  "data": [
    {"smiles": "CCN(CC)CCCCNc1ncc2cc(-c3cc(OC)cc(OC)c3)c(NC(=O)NC(C)(C)C)nc2n1", "values": [
      {"measurement": "% of control", "setting": "[1]", "result": 100, "unit": "%"}
    ]},
    {"smiles": "CN(C)CCOc1ccc(-c2nc(-c3ccncc3)c(-c3ccc4c(c3)CC/C4=N\\O)[nH]2)cc1", "values": [
      {"measurement": "% of control", "setting": "[2]", "result": 83, "unit": "%"}
    ]},
    {"smiles": "Nc1cnc(N2CCc3cc(S(=O)(=O)Nc4c(F)cc(Cl)cc4F)cc(N4CCCC4=O)c32)nc1", "note": "[TP-020n]", "values": [
      {"measurement": "% of control", "setting": "[3]", "result": 87, "unit": "%"}
    ]},
    {"smiles": "N#Cc1cccc(-c2c[nH]c3ncnc(N4CCOCC4)c23)c1", "values": [
      {"measurement": "% of control", "setting": "[4]", "result": 100, "unit": "%"}
    ]},
    {"smiles": "CC(C)(O)[C@H](F)CN1Cc2cc(NC(=O)c3cnn4cccnc34)c(N3CCOCC3)cc2C1=O", "values": [
      {"measurement": "dTM", "setting": "[5]", "result": -0.2, "unit": "K"}
    ]},
    {"smiles": "COCC(=O)NC/C=C/c1ccc2ncnc(Nc3ccc(Oc4ccc(C)nc4)c(C)c3)c2c1", "note": "[CP-724714]", "values": [
      {"measurement": "% of control", "setting": "[6]", "result": 88, "unit": "%"}
    ]},
    {"smiles": "Cc1cc([C@@H](C)Nc2ccccc2C(=O)O)c2nc(N3CCOCC3)cc(=O)n2c1", "note": "[AZD-6482]", "values": [
      {"measurement": "% of control", "setting": "[7]", "result": 96, "unit": "%"}
    ]},
    {"smiles": "CC[C@@H]1[C@H](F)C(=O)N[C@@H]1COc1nccc2cc(C(N)=O)c(OC)cc12", "note": "[ZIMLOVISERTIB]", "values": [
      {"measurement": "% of inhibition", "setting": "[8]", "result": 2.19, "unit": "%"}
    ]},
    {"smiles": "COc1cc(N(C)c2ccnc3ccc(C(F)(F)F)cc23)cc(OC)c1OC", "values": [
      {"measurement": "% binding", "setting": "[9]", "result": 58, "unit": "%"},
      {"measurement": "% binding", "setting": "[10]", "result": 63, "unit": "%"}
    ]},
    {"smiles": "O=C(NOC[C@H](O)CO)c1ccc(F)c(F)c1Nc1ccc(I)cc1F", "values": [
      {"measurement": "% of control", "setting": "[11]", "result": 99, "unit": "%"},
      {"measurement": "% of control", "setting": "[12]", "result": 75, "unit": "%"}
    ]},
    {"smiles": "CCC(=O)N1CCN(c2ccc(-n3c(=O)ccc4cnc5ccc(-c6cnc7ccccc7c6)cc5c43)cc2C(F)(F)F)CC1", "values": [
      {"measurement": "% of control", "setting": "[13]", "result": 85, "unit": "%"}
    ]},
    {"smiles": "Cc1cc(F)c(C(=O)Nc2cccc(-c3nncn3C(C)C)n2)cc1-n1cnc(C2CC2)c1", "values": [
      {"measurement": "% of control", "setting": "[14]", "result": 100, "unit": "%"}
    ]}
  ]
}
